Measurements as given in patent publication US20240018123A1, “COMPOUND FOR INHIBITING OR DISINTEGRATING ANDROGEN RECEPTOR, AND PHARMACEUTICAL USE THEREOF” (KOREA RESEARCH INSTITUTE OF CHEMICAL TECHNOLOGY, priority 2020, published 2024).

These molecules were tested against T1, Androgen receptor (AR) (Homo sapiens, UniProt P10275, T878A) (assay: Assessment of AR proteolytic activity (Western blotting of LNCap cell lysates)). Conditions: 24 hours of treatment, Western blotting quantified with Image J.
T1 construct: 5.5×10^5 LNCap cells were injected into each well of a 6-well plate; endogenous in cells; host or cells: LNCaP
T1 sequence (P10275 1-920 T878A): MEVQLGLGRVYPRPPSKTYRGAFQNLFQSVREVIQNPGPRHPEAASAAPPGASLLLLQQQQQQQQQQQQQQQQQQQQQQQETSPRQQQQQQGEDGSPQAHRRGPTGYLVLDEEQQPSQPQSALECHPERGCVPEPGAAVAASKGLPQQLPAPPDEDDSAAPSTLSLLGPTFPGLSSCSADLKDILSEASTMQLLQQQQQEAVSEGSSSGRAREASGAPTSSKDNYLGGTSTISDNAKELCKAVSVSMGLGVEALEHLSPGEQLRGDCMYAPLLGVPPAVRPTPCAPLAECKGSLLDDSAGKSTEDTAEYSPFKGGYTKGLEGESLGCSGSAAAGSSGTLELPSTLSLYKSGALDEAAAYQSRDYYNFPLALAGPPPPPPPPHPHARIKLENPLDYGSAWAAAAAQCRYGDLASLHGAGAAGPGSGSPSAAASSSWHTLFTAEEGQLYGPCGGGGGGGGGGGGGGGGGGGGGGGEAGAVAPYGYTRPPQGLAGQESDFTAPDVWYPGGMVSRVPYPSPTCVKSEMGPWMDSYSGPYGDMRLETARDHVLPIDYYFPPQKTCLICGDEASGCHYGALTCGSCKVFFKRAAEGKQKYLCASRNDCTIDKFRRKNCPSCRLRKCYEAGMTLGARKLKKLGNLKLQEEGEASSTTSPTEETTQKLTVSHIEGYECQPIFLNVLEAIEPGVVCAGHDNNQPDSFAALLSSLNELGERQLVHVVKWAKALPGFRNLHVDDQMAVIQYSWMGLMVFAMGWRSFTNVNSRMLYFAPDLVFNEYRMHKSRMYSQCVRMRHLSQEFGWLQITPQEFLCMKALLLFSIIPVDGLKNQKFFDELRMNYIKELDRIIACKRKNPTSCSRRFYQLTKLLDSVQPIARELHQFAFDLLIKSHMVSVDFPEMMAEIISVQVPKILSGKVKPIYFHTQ
Assay type: cell-based
Method: Assessment of AR Proteolytic Activity
Androgen receptor (AR) proteolytic activity of the compound according to the present invention was evaluated as follows: Specifically, 5.5×10^5 LNCap cells were injected into each well of a 6-well plate. […] After 24 hours of treatment, cells were collected and lysed using RIPA Lysis buffer (50 mM Tris-HCl, pH7.5, 150 mM NaCl, 1% Triton X-100, 2 mM EDTA, 0.1% SDS, 0.5% sodium deoxycholate and protease inhibitor cocktail) to make cell lysates. Western blotting was performed, and the results were quantified using Image J program.
With `CC1(C)C(NC(=O)c2ccc(N3CC[C@@H](CN4CC5(CCN(c6ccc7c(=O)n(C8CCC(=O)NC8=O)nnc7c6)CC5)C4)C3)nc2)C(C)(C)C1Oc1ccc(C#N)c(Cl)c1` (stereo partly drawn) [Example 187, N-((1r,3S)-3-(3-chloro-4-cyanophenoxy)-2,2,4,4-tetramethylcyclobutyl)-6-((3S)-3-((7-(3-(2,6-dioxopiperidin-3-yl)-4-oxo-3,4-dihydrobenzo[d][1,2,3]triazin-7-yl)-2,7-diazaspiro[3.5]nonan-2-yl)methyl)pyrrolidin-1-yl)nicotinamide] the “Degradation (1 μM treated in LNCaP, % AR remaining)” value was 27%.
With `CC1(C)[C@H](NC(=O)c2ccc(N3CCC(CCN4CCN(c5ccc6nnn(C7CCC(=O)NC7=O)c(=O)c6c5)CC4)CC3)nc2)C(C)(C)[C@H]1Oc1ccc(C#N)c(Cl)c1` (some centres unmarked) [Example 198, N-((1r,3r)-3-(3-chloro-4-cyanophenoxy)-2,2,4,4-tetramethylcyclobutyl)-6-(4-(2-(4-(3-(2,6-dioxopiperidin-3-yl)-4-oxo-3,4-dihydrobenzo[d][1,2,3]triazin-6-yl)piperazin-1-yl)ethyl)piperidin-1-yl)nicotinamide] the “Degradation (1 μM treated in LNCaP, % AR remaining)” value was 10%.
For `N#Cc1ccc(OC2CCC(NC(=O)c3ccc(N4CCC(CN5CCN(c6ccc7c(=O)n(C8CCC(=O)NC8=O)nnc7c6)CC5)CC4)nc3)CC2)cc1Cl` (centres unmarked) [Example 164, N-((1r,4r)-4-(3-chloro-4-cyanophenoxy)cyclohexyl)-6-(4-((4-(3-(2,6-dioxopiperidin-3-yl)-4-oxo-3,4-dihydrobenzo[d][1,2,3]triazin-7-yl)piperazin-1-yl)methyl)piperidin-1-yl)nicotinamide], the “Degradation (1 μM treated in LNCaP, % AR remaining)” value was 13%.
With `CC1(C)C(NC(=O)c2ccc(N3CC[C@H](CN4CC5(CCN(c6ccc7nnn(C8CCC(=O)NC8=O)c(=O)c7c6)CC5)C4)C3)nc2)C(C)(C)C1Oc1ccc(C#N)c(Cl)c1` (stereo partly drawn) [Example 186, N-((1r,3R)-3-(3-chloro-4-cyanophenoxy)-2,2,4,4-tetramethylcyclobutyl)-6-((3R)-3-((7-(3-(2,6-dioxopiperidin-3-yl)-4-oxo-3,4-dihydrobenzo[d][1,2,3]triazin-6-yl)-2,7-diazaspiro[3.5]nonan-2-yl)methyl)pyrrolidin-1-yl)nicotinamide] the “Degradation (1 μM treated in LNCaP, % AR remaining)” value was 11%.
For `CC1(C)C(NC(=O)c2ccc(C#CCN3CC4(CCN(c5ccc6c(=O)n(C7CCC(=O)NC7=O)nnc6c5)CC4)C3)nc2)C(C)(C)C1Oc1ccc(C#N)c(Cl)c1` (centres unmarked) [Example 179, N-((1r,3r)-3-(3-chloro-4-cyanophenoxy)-2,2,4,4-tetramethylcyclobutyl)-6-(3-(7-(3-(2,6-dioxopiperidin-3-yl)-4-oxo-3,4-dihydrobenzo[d][1,2,3]triazin-7-yl)-2,7-diazaspiro[3.5]nonan-2-yl)prop-1-yn-1-yl)nicotinamide], the “Degradation (1 μM treated in LNCaP, % AR remaining)” value was 8%.
`CC1(C)C(NC(=O)c2ccc(N3CC[C@@H](CN4CC5(CCN(c6ccc7nnn(C8CCC(=O)NC8=O)c(=O)c7c6)CC5)C4)C3)nc2)C(C)(C)C1Oc1ccc(C#N)c(Cl)c1` (stereo partly drawn) [Example 188, N-((1r,3S)-3-(3-chloro-4-cyanophenoxy)-2,2,4,4-tetramethylcyclobutyl)-6-((3S)-3-((7-(3-(2,6-dioxopiperidin-3-yl)-4-oxo-3,4-dihydrobenzo[d][1,2,3]triazin-6-yl)-2,7-diazaspiro[3.5]nonan-2-yl)methyl)pyrrolidin-1-yl)nicotinamide] was tested, and the “Degradation (1 μM treated in LNCaP, % AR remaining)” value was 21%.
With `CC1(C)C(NC(=O)c2ccc(N3CC[C@H](CN4CCN(C5CCN(c6ccc7c(=O)n(C8CCC(=O)NC8=O)nnc7c6)CC5)CC4)C3)nc2)C(C)(C)C1Oc1ccc(C#N)c(Cl)c1` (stereo partly drawn) [Example 191, N-((1r,3R)-3-(3-chloro-4-cyanophenoxy)-2,2,4,4-tetramethylcyclobutyl)-6-((3R)-3-((4-(1-(3-(2,6-dioxopiperidin-3-yl)-4-oxo-3,4-dihydrobenzo[d][1,2,3]triazin-7-yl)piperidin-4-yl)piperazin-1-yl)methyl)pyrrolidin-1-yl)nicotinamide] the “Degradation (1 μM treated in LNCaP, % AR remaining)” value was 33%.
For `CC1(C)[C@H](NC(=O)c2ccc(N3CCC(CN4CCC5(CC4)CN(c4ccc6nnn(C7CCC(=O)NC7=O)c(=O)c6c4)C5)CC3)nc2)C(C)(C)[C@H]1Oc1ccc(C#N)c(Cl)c1` (some centres unmarked) [Example 172, N-((1r,3r)-3-(3-chloro-4-cyanophenoxy)-2,2,4,4-tetramethylcyclobutyl)-6-(4-((2-(3-(2,6-dioxopiperidin-3-yl)-4-oxo-3,4-dihydrobenzo[d][1,2,3]triazin-6-yl)-2,7-diazaspiro[3.5]nonan-7-yl)methyl)piperidin-1-yl)nicotinamide], the “Degradation (1 μM treated in LNCaP, % AR remaining)” value was 7%.
For `CC1(C)C(NC(=O)c2ccc(C#CCN3CCN(c4ccc5nnn(C6CCC(=O)NC6=O)c(=O)c5c4)CC3)nc2)C(C)(C)C1Oc1ccc(C#N)c(Cl)c1` (centres unmarked) [Example 178, N-((1r,3r)-3-(3-chloro-4-cyanophenoxy)-2,2,4,4-tetramethylcyclobutyl)-6-(3-(4-(3-(2,6-dioxopiperidin-3-yl)-4-oxo-3,4-dihydrobenzo[d][1,2,3]triazin-6-yl)piperazin-1-yl)prop-1-yn-1-yl)nicotinamide], the “Degradation (1 μM treated in LNCaP, % AR remaining)” value was 23%.
With `CC1(C)C(NC(=O)c2ccc(N3CC[C@H](CN4CCN(C5CCN(c6ccc7nnn(C8CCC(=O)NC8=O)c(=O)c7c6)CC5)CC4)C3)nc2)C(C)(C)C1Oc1ccc(C#N)c(Cl)c1` (stereo partly drawn) [Example 192, N-((1r,3R)-3-(3-chloro-4-cyanophenoxy)-2,2,4,4-tetramethylcyclobutyl)-6-((3R)-3-((4-(1-(3-(2,6-dioxopiperidin-3-yl)-4-oxo-3,4-dihydrobenzo[d][1,2,3]triazin-6-yl)piperidin-4-yl)piperazin-1-yl)methyl)pyrrolidin-1-yl)nicotinamide] the “Degradation (1 μM treated in LNCaP, % AR remaining)” value was 22%.
For `CC1(C)C(NC(=O)c2ccc(C#CCN3CCC4(CC3)CN(c3ccc5nnn(C6CCC(=O)NC6=O)c(=O)c5c3)C4)nc2)C(C)(C)C1Oc1ccc(C#N)c(Cl)c1` (centres unmarked) [Example 182, N-((1r,3r)-3-(3-chloro-4-cyanophenoxy)-2,2,4,4-tetramethylcyclobutyl)-6-(3-(2-(3-(2,6-dioxopiperidin-3-yl)-4-oxo-3,4-dihydrobenzo[d][1,2,3]triazin-6-yl)-2,7-diazaspiro[3.5]nonan-7-yl)prop-1-yn-1-yl)nicotinamide], the “Degradation (1 μM treated in LNCaP, % AR remaining)” value was 16%.
For `N#Cc1ccc(O[C@H]2CC[C@@H](NC(=O)c3ccc(N4CCC(CN5CC6(CCN(c7ccc8c(=O)n(C9CCC(=O)NC9=O)nnc8c7)CC6)C5)CC4)nc3)CC2)cc1Cl` (some centres unmarked) [Example 167, N-((1r,4r)-4-(3-chloro-4-cyanophenoxy)cyclohexyl)-6-(4-((7-(3-(2,6-dioxopiperidin-3-yl)-4-oxo-3,4-dihydrobenzo[d][1,2,3]triazin-7-yl)-2,7-diazaspiro[3.5]nonan-2-yl)methyl)piperidin-1-yl)nicotinamide], the “Degradation (1 μM treated in LNCaP, % AR remaining)” value was 19%.
For `CC1(C)C(NC(=O)c2ccc(N3CCC(CCN4CCN(c5ccc6c(=O)n(C7CCC(=O)NC7=O)nnc6c5)CC4)CC3)nc2)C(C)(C)C1Oc1ccc(C#N)c(Cl)c1` (centres unmarked) [Example 197, N-((1r,3r)-3-(3-chloro-4-cyanophenoxy)-2,2,4,4-tetramethylcyclobutyl)-6-(4-(2-(4-(3-(2,6-dioxopiperidin-3-yl)-4-oxo-3,4-dihydrobenzo[d][1,2,3]triazin-7-yl)piperazin-1-yl)ethyl)piperidin-1-yl)nicotinamide], the “Degradation (1 μM treated in LNCaP, % AR remaining)” value was 16%.
`CC1(C)C(NC(=O)c2ccc(N3CC[C@H](CN4CCC5(CC4)CN(c4ccc6c(=O)n(C7CCC(=O)NC7=O)nnc6c4)C5)C3)nc2)C(C)(C)C1Oc1ccc(C#N)c(Cl)c1` (stereo partly drawn) [Example 189, N-((1r,3R)-3-(3-chloro-4-cyanophenoxy)-2,2,4,4-tetramethylcyclobutyl)-6-((3R)-3-((2-(3-(2,6-dioxopiperidin-3-yl)-4-oxo-3,4-dihydrobenzo[d][1,2,3]triazin-7-yl)-2,7-diazaspiro[3.5]nonan-7-yl)methyl)pyrrolidin-1-yl)nicotinamide] was tested, and the “Degradation (1 μM treated in LNCaP, % AR remaining)” value was 14%.
